The results in this text go back to patent publication US20250228239A1, “MOLECULES HAVING PESTICIDAL UTILITY, AND INTERMEDIATES, COMPOSITIONS, AND PROCESSES, RELATED THERETO” (priority 2024, published 2025).

Common to all, as to type: in vivo
Assay [1] has as its system Yellow Fever Mosquito (Aedes aegypti, AEDSAE). The settings on record: for YFM rating: Table ABC / ABC-DP rating. Put shortly: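 Mortality after 3 days at room temperature is the read-out, scored well by well and converted to a rating. Test molecules came from 4000 ppm stocks in DMSO, further diluted in 90:10 water/acetone, and were exposed to roughly 1-day-old larvae suspended in liver-powder water.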

The test system of assay [2] is Beet Armyworm (Spodoptera exigua, LAPHEG). The assay is described as follows: Bioassays on Beet Armyworm (BAW), 128-well diet tray assay. The settings on record: Spodoptera exigua. The procedure, abridged:
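Mortality of second-instar larvae (1–5/well) on artificial diet treated with 50 μg/cm^2 compound, read after 5–7 days at 25° C.; values are means of eight wells.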

Assay [3] deals with Cabbage Looper (Trichoplusia ni, TRIPNI). In words: Bioassays on Cabbage Looper (CL), 128-well diet tray assay. The conditions noted are these: Trichoplusia ni. The procedure, abridged: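 Activity is mean percent mortality over eight wells of second-instar larvae exposed to diet treated at 50 μg/cm^2 for 5–7 days at 25° C.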
Setting [4] is: Beet Armyworm, Table ABC / ABC-DP rating, read-out: BAW rating.
[5] abbreviates: Cabbage Looper, Table ABC / ABC-DP rating, read-out: CL rating.
[6] abbreviates: Table ABC: Biological Results, species YFM.
Setting [7] is: Table ABC: Biological Results, species BAW, read-out: BAW.
Setting [8] is: Table ABC: Biological Results, species CL, read-out: CL.
Setting [9] is: Yellow Fever Mosquito, rating class.
Setting [10] is: Beet Armyworm, rating class, read-out: BAW.
Where [11] appears, read: Cabbage Looper, rating class, read-out: CL.

Read-outs that look alike come from different tables or passages of the source.

Take `CN(NC(=O)c1cc(NC(=O)[C@H]2[C@H](c3ccc(Cl)c(Cl)c3)C2(Cl)Cl)ccc1Cl)c1ccccc1` [F2513, (1R,3R)-2,2-Dichloro-N-(4-chloro-3-(2-methyl-2-phenylhydrazine-1-carbonyl)phenyl)-3-(3,4-dichlorophenyl)cyclopropane-1-carboxamide]: the YFM rating result in assay [1] (Yellow Fever Mosquito) is reported as “A (80–100)”. For the same molecule, the pest or weed control at 50 µg/cm2 in assay [2] (setting [4]) and in assay [3] (setting [5]) was 50 to 100% throughout.

In the case of `O=C(Nc1ccc(F)cc1F)c1cc(NC(=O)[C@H]2[C@H](c3cc(Cl)cc(C(F)(F)F)c3)C2(Cl)Cl)ccc1Cl` (relative stereo) [F1118, trans-2-Chloro-5-(2,2-dichloro-3-(3-chloro-5-(trifluoromethyl)phenyl)cyclopropane-1-carboxamido)-N-(2,4-difluorophenyl)benzamide], the YFM entry in assay [1] (setting [6]) was “A (80–100)”. In addition, the pest or weed control at 50 µg/cm2 in assay [2] (setting [7]) and in assay [3] (setting [8]) was 50 to 100% in each case.

As for `Cc1cc(NC(=O)C(F)(F)F)ccc1NC(=O)c1cc(NC(=O)[C@H]2[C@H](c3ccc(Cl)c(Cl)c3)C2(Cl)Cl)ccc1Cl` (relative stereo) [F1061, trans-2-Chloro-5-(2,2-dichloro-3-(3,4-dichlorophenyl)cyclopropane-1-carboxamido)-N-(2-methyl-4-(2,2,2-trifluoroacetamido)phenyl)benzamide], in assay [1] (setting [6]), the YFM result is recorded as “A (80–100)”. Also, the pest or weed control at 50 µg/cm2 in assay [2] (setting [7]) and in assay [3] (setting [8]) was 50 to 100% each time.

Consider `Cc1cc([C@@H]2[C@H](C(=O)Nc3ccc(Cl)c(C(=O)NCC(F)(F)F)c3)C2(Cl)Cl)cc(C(F)(F)F)c1F` (relative stereo) [F2015, cis-2-Chloro-5-(2,2-dichloro-3-(4-fluoro-3-methyl-5-(trifluoromethyl)phenyl)-cyclopropane-1-carboxamido)-N-(2,2,2-trifluoroethyl)benzamide], for which the YFM rating entry in assay [1] (Yellow Fever Mosquito) is reported as “A (80–100)”. Also, the pest or weed control at 50 µg/cm2 in assay [2] (setting [4]) and in assay [3] (setting [5]) was 50 to 100% throughout.

As to `CN(C)CC(=O)NNC(=O)c1cc(NC(=O)[C@H]2[C@H](c3cc(Cl)cc(Cl)c3)C2(Cl)Cl)ccc1Cl` (relative stereo) [F2530, trans-2,2-Dichloro-N-(4-chloro-3-(2-(dimethylglycyl)hydrazine-1-carbonyl)phenyl)-3-(3,5-dichlorophenyl)cyclopropane-1-carboxamide], the YFM rating entry in assay [1] (Yellow Fever Mosquito) was “A (80–100)”. The pest or weed control at 50 µg/cm2 in assay [2] (setting [4]) and in assay [3] (setting [5]) was 50 to 100% in each case.

For `O=C(Nc1ccc(F)c(NC(=O)C(F)F)c1F)c1cccc(NC(=O)[C@H]2[C@H](c3ccc(Cl)c(Cl)c3)C2(Cl)Cl)c1` [F1447, 3-((1R,3R)-2,2-Dichloro-3-(3,4-dichlorophenyl)cyclopropane-1-carboxamido)-N-(3-(2,2-difluoroacetamido)-2,4-difluorophenyl)benzamide], the YFM result in assay [1] (setting [9]) is listed as “A (80–100)”. Besides, the pest or weed control at 50 µg/cm2 in assay [2] (setting [10]) and in assay [3] (setting [11]) was 50 to 100% each time.

On to `C=Cc1cc(NC(=O)c2cc(NC(=O)[C@H]3[C@H](c4cc(Cl)cc(Cl)c4)C3(Cl)Cl)ccc2Cl)ccc1F` (relative stereo) [F1311, trans-2-chloro-5-(2,2-dichloro-3-(3,5-dichlorophenyl)cyclopropane-1-carboxamido)-N-(4-fluoro-3-vinylphenyl)benzamide], for which the YFM entry in assay [1] (setting [6]) is “A (80–100)”. For the same molecule, the pest or weed control at 50 µg/cm2 in assay [2] (setting [7]) and in assay [3] (setting [8]) was 50 to 100% throughout.

`O=C(Nc1ccc(F)c(NC(=O)C(Cl)CCl)c1F)c1cc(NC(=O)[C@H]2[C@H](c3ccc(F)c(C(F)(F)F)c3)C2(Cl)Cl)ccc1Cl` (stereo partly drawn) [F1728, 2-Chloro-5-((1R,3R)-2,2-dichloro-3-(4-fluoro-3-(trifluoromethyl)phenyl)cyclopropane-1-carboxamido)-N-(3-(2,3-dichloropropanamido)-2,4-difluorophenyl)benzamide]: in assay [1] (setting [9]), the YFM entry is listed as “B (More than 0 – Less than 80)”. Besides, the pest or weed control at 50 µg/cm2 in assay [2] (setting [10]) and in assay [3] (setting [11]) was 50 to 100% throughout.

In the case of `O=C(Nc1ccc(F)c(NC(=O)C(Cl)Cl)c1F)c1cc(NC(=O)[C@H]2[C@H](c3cc(Cl)c(Cl)c(Cl)c3)C2(Cl)Cl)ccc1Cl` [F1685, 2-Chloro-5-((1R,3R)-2,2-dichloro-3-(3,4,5-trichlorophenyl)cyclopropane-1-carboxamido)-N-(3-(2,2-dichloroacetamido)-2,4-difluorophenyl)benzamide], the YFM entry in assay [1] (setting [9]) was “A (80–100)”. In addition, the pest or weed control at 50 µg/cm2 in assay [2] (setting [10]) and in assay [3] (setting [11]) was 50 to 100% each time.

As for `O=C(Nc1ccc(F)c(NC(=O)C2CCCO2)c1F)c1cc(NC(=O)[C@H]2[C@H](c3ccc(F)c(C(F)(F)F)c3)C2(Cl)Cl)ccc1Cl` (stereo partly drawn) [F1521, N-(3-(2-Chloro-5-((1R,3R)-2,2-dichloro-3-(4-fluoro-3-(trifluoromethyl)phenyl)cyclopropane-1-carboxamido)benzamido)-2,6-difluorophenyl)tetrahydrofuran-2-carboxamide], the YFM result in assay [1] (setting [9]) is “A (80–100)”. Moreover, the pest or weed control at 50 µg/cm2 in assay [2] (setting [10]) and in assay [3] (setting [11]) was 50 to 100% in each case.

Regarding `O=C(Nc1ccc(NC(=O)C(F)(F)F)c(C(F)(F)F)c1)c1cc(NC(=O)[C@H]2[C@H](c3ccc(F)c(Cl)c3)C2(Cl)Cl)ccc1Cl` (relative stereo) [F1393, trans-2-Chloro-5-(2,2-dichloro-3-(3-chloro-4-fluorophenyl)cyclopropane-1-carboxamido)-N-(4-(2,2,2-trifluoroacetamido)-3-(trifluoromethyl)phenyl)benzamide], in assay [1] (setting [9]), the YFM result is on record as “A (80–100)”. In addition, the pest or weed control at 50 µg/cm2 in assay [2] (setting [10]) and in assay [3] (setting [11]) was 50 to 100% throughout.

On to `CN(C(=O)C(F)F)c1c(F)ccc(NC(=O)c2cc(NC(=O)[C@H]3[C@H](c4cc(Cl)c(Cl)c(Cl)c4)C3(Cl)Cl)ccc2Cl)c1F` [F1461, 2-Chloro-5-((1R,3R)-2,2-dichloro-3-(3,4,5-trichlorophenyl)cyclopropane-1-carboxamido)-N-(3-(2,2-difluoro-N-methylacetamido)-2,4-difluorophenyl)benzamide], for which the YFM result in assay [1] (setting [9]) was “A (80–100)”. For the same molecule, the pest or weed control at 50 µg/cm2 in assay [2] (setting [10]) and in assay [3] (setting [11]) was 50 to 100% throughout.

As to `C#CCN(C(=O)CC#N)c1c(F)ccc(NC(=O)c2cc(NC(=O)[C@H]3[C@H](c4ccc(F)c(C(F)(F)F)c4)C3(Cl)Cl)ccc2Cl)c1F` [F1810, 2-Chloro-N-(3-(2-cyano-N-(prop-2-yn-1-yl)acetamido)-2,4-difluorophenyl)-5-((1R,3R)-2,2-dichloro-3-(4-fluoro-3-(trifluoromethyl)phenyl)cyclopropane-1-carboxamido)benzamide], the YFM rating entry in assay [1] (Yellow Fever Mosquito) is “A (80–100)”. The pest or weed control at 50 µg/cm2 in assay [2] (setting [4]) and in assay [3] (setting [5]) was 50 to 100% throughout.

As to `O=C(Nc1ccc(F)c(NC(=O)C2CCCO2)c1F)c1cc(NC(=O)[C@H]2[C@H](c3ccc(Cl)c(C(F)(F)F)c3)C2(Cl)Cl)ccc1Cl` (stereo partly drawn) [F1661, N-(3-(2-Chloro-5-((1R,3R)-2,2-dichloro-3-(4-chloro-3-(trifluoromethyl)phenyl)cyclopropane-1-carboxamido)benzamido)-2,6-difluorophenyl)tetrahydrofuran-2-carboxamide], in assay [1] (setting [9]), the YFM result is recorded as “A (80–100)”. Further, the pest or weed control at 50 µg/cm2 in assay [2] (setting [10]) and in assay [3] (setting [11]) was 50 to 100% each time.

`NCCCC(=O)Nc1c(F)ccc(NC(=O)c2cc(NC(=O)[C@H]3[C@H](c4ccc(Cl)c(Cl)c4)C3(Cl)Cl)ccc2Cl)c1F` [F1201, N-(3-(4-Aminobutanamido)-2,4-difluorophenyl)-2-chloro-5-((1R,3R)-2,2-dichloro-3-(3,4-dichlorophenyl)cyclopropane-1-carboxamido)benzamide]: in assay [1] (setting [6]), the YFM entry is “A (80–100)”. Further, the pest or weed control at 50 µg/cm2 in assay [2] (setting [7]) and in assay [3] (setting [8]) was 50 to 100% throughout.

`C#CC(C)C(=O)N(CC)c1c(F)ccc(NC(=O)c2cc(NC(=O)[C@H]3[C@H](c4ccc(F)c(C(F)(F)F)c4)C3(Cl)Cl)ccc2Cl)c1F` (stereo partly drawn) [F1764]: the YFM result in assay [1] (setting [9]) was “A (80–100)”. Besides, the pest or weed control at 50 µg/cm2 in assay [2] (setting [10]) and in assay [3] (setting [11]) was 50 to 100% in each case.

Take `CCNC(=O)c1cc(NC(=O)[C@H]2[C@H](c3ccc(F)c(Cl)c3)C2(Cl)Cl)cc(C)c1Cl` (relative stereo) [F2037, trans-2-Chloro-5-(2,2-dichloro-3-(3-chloro-4-fluorophenyl)cyclopropane-1-carboxamido)-N-ethyl-3-methylbenzamide]: in assay [1] (Yellow Fever Mosquito), the YFM rating entry is “A (80–100)”. For the same molecule, the pest or weed control at 50 µg/cm2 in assay [2] (setting [4]) and in assay [3] (setting [5]) was 50 to 100% in each case.

For the molecule `CC(OCC1CC1)C(=O)Nc1c(F)ccc(NC(=O)c2cc(NC(=O)[C@H]3[C@H](c4ccc(F)c(C(F)(F)F)c4)C3(Cl)Cl)ccc2Cl)c1F` (stereo partly drawn) [F1745, 2-Chloro-N-(3-(2-(cyclopropylmethoxy)propanamido)-2,4-difluorophenyl)-5-((1R,3R)-2,2-dichloro-3-(4-fluoro-3-(trifluoromethyl)phenyl)cyclopropane-1-carboxamido)benzamide], the YFM result in assay [1] (setting [9]) is listed as “A (80–100)”. In addition, the pest or weed control at 50 µg/cm2 in assay [2] (setting [10]) and in assay [3] (setting [11]) was 50 to 100% each time.
